ChEMBL document CHEMBL5236590, “Discovery of Novel N-(5-(Pyridin-3-yl)-1H-indazol-3-yl)benzamide Derivatives as Potent Cyclin-Dependent Kinase 7 Inhibitors for the Treatment of Autosomal Dominant Polycystic Kidney Disease” (J Med Chem, 2022)
Active and inactive are the calls of the source. No cut-off for these calls is given here.

Tests used:
[1] = target: ALK tyrosine kinase receptor (Homo sapiens) (UniProt Q9UM73); assay: Inhibition of human partial length ALK (I1088/E1409) expressed in mammalian system at 1 uM by KINOMEscan analysis relative to control
Mus musculus [2] = species: Mus musculus; assay: Suppression of cyst formation in C57BL/6 mouse embryonic kidney cyst model at 1 to 3 uM measured for 4 to 12 […]; assay type: functional, organism-based; details: dose 1-3 µM, time 4-12 hrs
[3] = target: Mitogen-activated protein kinase 14 (Homo sapiens) (UniProt Q16539); assay: Inhibition of full length human recombinant SAPK2a at 1 uM by radiometric assay
[4] = target: Serine/threonine-protein kinase pim-1 (Homo sapiens) (UniProt P11309); assay: Inhibition of human partial length wild type Pim-1 (M1/E291) expressed in bacterial system at 1 uM by KINOMEscan analysis relative to control
Mus musculus [5] = assay: Reduction in AMPD3 protein expression in kidney-specific Pkd1 knockout ADPKD mouse model assessed as protein expression in kidney at 5 mg/kg by Western blot analysis; assay type: functional, organism-based
[6] = target: MAP kinase-interacting serine/threonine-protein kinase 2 (Homo sapiens) (UniProt Q9HBH9); assay: Inhibition of human partial length wild type Mnk2 (G63/S388) expressed in mammalian system at 1 uM by KINOMEscan analysis relative to control
[7] = Efflux ratio of apparent permeability in human Caco-2 cells after 120 mins by LC-MS/MS analysis; assay type: ADME, cell-based
[8] = target: Ribosomal protein S6 kinase alpha-4 (Homo sapiens) (UniProt O75676); assay: Inhibition of human partial length wild type MSK2 expressed in bacterial system at 1 uM by KINOMEscan analysis relative to control
[9] = target: Cyclin-dependent kinase 3 (Homo sapiens, UniProt Q00526); assay: Inhibition of CDK3 (unknown origin)
[10] = Half life in ICR mouse at 5 mg/kg, iv single dose measured upto 24 hrs; assay type: ADME, organism-based; details: in vivo
[11] = target: 5'-AMP-activated protein kinase catalytic subunit alpha-1 (Homo sapiens) (UniProt Q13131); assay: Inhibition of human partial length AMPKalphal (M1/E306) expressed in bacterial system at 1 uM by KINOMEscan analysis relative to control
Homo sapiens = species: Homo sapiens; assay: Inhibition of P13 Kinase p120gamma (unknown origin) at 1 uM relative to control
Mus musculus [12] = assay: Reduction in kidney size in kidney-specific Pkd1 knockout ADPKD mouse model assessed as renal cystic index at 5 mg/kg by HE staining analysis (reference value: 23 +/- 1.3%); assay type: functional, organism-based
THP-1 = assay: Cytotoxicity against human THP-1 cells assessed as cell viability measured after 24 hrs by CCK-8 assay; assay type: functional, cell-based; details: THP-1, 24 h
[13] = target: MAP kinase-activated protein kinase 5 (Homo sapiens) (UniProt Q8IW41); assay: Inhibition of human partial length wild type PRAK (M1/D322) expressed in mammalian system at 1 uM by KINOMEscan analysis relative to control
Chain of MAP kinase-activated protein kinase 5 (Homo sapiens) (Q8IW41 whole entry): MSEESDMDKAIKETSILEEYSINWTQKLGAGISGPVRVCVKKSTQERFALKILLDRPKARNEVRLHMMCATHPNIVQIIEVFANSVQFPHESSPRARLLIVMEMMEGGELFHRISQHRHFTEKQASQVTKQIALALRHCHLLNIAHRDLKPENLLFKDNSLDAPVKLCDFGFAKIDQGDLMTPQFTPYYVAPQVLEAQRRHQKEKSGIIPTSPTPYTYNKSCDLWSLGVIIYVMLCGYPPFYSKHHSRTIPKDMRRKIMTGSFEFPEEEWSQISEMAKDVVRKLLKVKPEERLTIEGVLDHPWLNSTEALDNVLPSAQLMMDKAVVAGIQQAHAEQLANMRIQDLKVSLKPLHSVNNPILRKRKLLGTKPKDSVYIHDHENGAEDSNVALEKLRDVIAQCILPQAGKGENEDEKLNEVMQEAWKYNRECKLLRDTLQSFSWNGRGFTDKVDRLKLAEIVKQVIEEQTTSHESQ

[14] = target: Inhibitor of nuclear factor kappa-B kinase subunit alpha (Homo sapiens) (UniProt O15111); assay: Inhibition of human full length wild type IKKalpha expressed in mammalian system at 1 uM by KINOMEscan analysis relative to control
[15] = Observed AUC (infinitive) in ICR mouse at 5 mg/kg, sc single dose measured upto 24 hrs; assay type: ADME, organism-based; parameters: time < 24 hrs, dose 5 mg/kg, route sc; details: in vivo
[16] = target: Vascular endothelial growth factor receptor 2 (Homo sapiens) (UniProt P35968); assay: Inhibition of human partial length wild type KDR (R787/P1253) expressed in mammalian system at 1 uM by KINOMEscan analysis relative to control
[17] = tested on: Epidermal growth factor receptor (Homo sapiens), P00533 [UNDEFINED MUTATION]; assay: Inhibition of human partial length EGFR (R669/V1011) G719C mutant expressed in bacterial system at 1 uM by KINOMEscan analysis relative to control
Chain of Epidermal growth factor receptor (Homo sapiens), P00533 [UNDEFINED MUTATION] (P00533 whole entry, looked up, stated change not applied): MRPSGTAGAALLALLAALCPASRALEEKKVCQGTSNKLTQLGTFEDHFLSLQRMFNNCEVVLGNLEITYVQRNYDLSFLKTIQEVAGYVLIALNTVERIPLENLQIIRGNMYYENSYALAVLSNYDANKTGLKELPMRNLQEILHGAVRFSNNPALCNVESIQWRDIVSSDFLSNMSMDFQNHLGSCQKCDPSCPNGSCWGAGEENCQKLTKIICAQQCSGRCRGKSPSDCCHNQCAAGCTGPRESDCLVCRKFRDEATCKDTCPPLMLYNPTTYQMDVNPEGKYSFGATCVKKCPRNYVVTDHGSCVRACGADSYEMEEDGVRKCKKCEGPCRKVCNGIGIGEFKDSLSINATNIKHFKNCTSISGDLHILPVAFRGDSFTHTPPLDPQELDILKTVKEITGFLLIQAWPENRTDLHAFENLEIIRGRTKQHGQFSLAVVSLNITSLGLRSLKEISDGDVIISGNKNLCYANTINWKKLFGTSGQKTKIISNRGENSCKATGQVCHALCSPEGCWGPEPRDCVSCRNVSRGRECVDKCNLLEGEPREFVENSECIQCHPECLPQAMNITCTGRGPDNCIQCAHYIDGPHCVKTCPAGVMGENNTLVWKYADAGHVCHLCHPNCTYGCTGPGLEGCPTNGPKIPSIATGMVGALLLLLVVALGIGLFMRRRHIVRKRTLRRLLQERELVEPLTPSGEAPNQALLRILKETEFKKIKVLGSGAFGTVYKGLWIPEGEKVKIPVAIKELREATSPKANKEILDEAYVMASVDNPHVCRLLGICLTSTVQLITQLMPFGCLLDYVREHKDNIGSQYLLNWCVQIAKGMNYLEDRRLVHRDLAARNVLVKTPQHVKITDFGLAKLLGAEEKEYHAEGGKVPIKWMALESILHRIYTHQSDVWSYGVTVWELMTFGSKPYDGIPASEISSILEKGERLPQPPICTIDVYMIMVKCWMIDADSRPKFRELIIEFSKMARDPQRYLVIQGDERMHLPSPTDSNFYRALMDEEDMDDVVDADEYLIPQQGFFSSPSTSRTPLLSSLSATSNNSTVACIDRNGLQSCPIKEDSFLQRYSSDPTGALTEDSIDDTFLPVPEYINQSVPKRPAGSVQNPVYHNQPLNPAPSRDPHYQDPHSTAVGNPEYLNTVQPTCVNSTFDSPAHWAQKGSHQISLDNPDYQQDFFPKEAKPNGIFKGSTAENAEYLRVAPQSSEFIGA

[18] = Plasma protein binding in mouse measured after 4 hrs by LC-MS/MS analysis; assay type: ADME, cell-free; details: read-out: PPB
[19] = target: T1, Cyclin-dependent kinase 7 (Homo sapiens, UniProt P50613); assay: Inhibition of CDK7 (unknown origin)
T1 sequence (P50613 whole entry): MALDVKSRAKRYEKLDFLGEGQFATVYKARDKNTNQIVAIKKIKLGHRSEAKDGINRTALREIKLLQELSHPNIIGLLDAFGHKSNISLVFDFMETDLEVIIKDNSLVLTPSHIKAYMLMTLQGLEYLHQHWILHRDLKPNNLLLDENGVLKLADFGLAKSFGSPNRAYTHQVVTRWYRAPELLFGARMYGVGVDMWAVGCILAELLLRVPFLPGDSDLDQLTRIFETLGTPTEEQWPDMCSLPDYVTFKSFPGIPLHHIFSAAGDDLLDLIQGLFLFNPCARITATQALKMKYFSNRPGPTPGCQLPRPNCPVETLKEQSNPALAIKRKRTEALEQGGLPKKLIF

[20] = Cmax in ICR mouse at 5 mg/kg, sc single dose measured upto 24 hrs; assay type: ADME, organism-based; parameters: time < 24 hrs, dose 5 mg/kg, route sc; details: in vivo
[21] = Toxicity in wild type mouse assessed as body weight at 5 mg/kg; assay type: organism-based; details: in vivo
[22] = target: PI3-kinase p110-alpha/p85-alpha (Homo sapiens) (UniProt P27986+P42336); assay: Inhibition of PI3 kinase p110alpha/p85alpha (unknown origin) at 1 uM relative to control; assay type: protein-complex assay
[23] = target: Dual specificity mitogen-activated protein kinase kinase 1 (Homo sapiens) (UniProt Q02750); assay: Inhibition of human full length wild type MEK1 expressed in mammalian system at 1 uM by KINOMEscan analysis relative to control
[24] = target: PI3-kinase p110-delta/p85-alpha (Homo sapiens) (UniProt P27986+O00329); assay: Inhibition of PI3 Kinase p110delta/p85alpha (unknown origin) at 1 uM relative to control; assay type: protein-complex assay
[25] = target: Casein kinase II subunit alpha' (Homo sapiens) (UniProt P19784); assay: Inhibition of human full length wild type CK2alpha2 expressed in mammalian system at 1 uM by KINOMEscan analysis relative to control
Chain of Casein kinase II subunit alpha' (Homo sapiens) (P19784 whole entry, looked up): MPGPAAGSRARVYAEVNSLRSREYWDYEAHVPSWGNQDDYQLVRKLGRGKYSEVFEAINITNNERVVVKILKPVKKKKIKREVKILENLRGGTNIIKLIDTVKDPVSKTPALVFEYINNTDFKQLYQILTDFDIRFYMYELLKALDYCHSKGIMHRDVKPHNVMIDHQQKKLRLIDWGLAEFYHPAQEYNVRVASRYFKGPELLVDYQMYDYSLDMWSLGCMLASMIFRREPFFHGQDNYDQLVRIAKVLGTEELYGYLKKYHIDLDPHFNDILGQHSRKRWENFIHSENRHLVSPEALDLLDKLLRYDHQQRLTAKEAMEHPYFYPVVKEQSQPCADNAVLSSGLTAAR

[26] = target: Ephrin type-B receptor 4 (Homo sapiens) (UniProt P54760); assay: Inhibition of human partial length wild type EphB4 (H585/G892) expressed in bacterial system at 1 uM by KINOMEscan analysis relative to control
Chain of Ephrin type-B receptor 4 (Homo sapiens) (P54760 whole entry): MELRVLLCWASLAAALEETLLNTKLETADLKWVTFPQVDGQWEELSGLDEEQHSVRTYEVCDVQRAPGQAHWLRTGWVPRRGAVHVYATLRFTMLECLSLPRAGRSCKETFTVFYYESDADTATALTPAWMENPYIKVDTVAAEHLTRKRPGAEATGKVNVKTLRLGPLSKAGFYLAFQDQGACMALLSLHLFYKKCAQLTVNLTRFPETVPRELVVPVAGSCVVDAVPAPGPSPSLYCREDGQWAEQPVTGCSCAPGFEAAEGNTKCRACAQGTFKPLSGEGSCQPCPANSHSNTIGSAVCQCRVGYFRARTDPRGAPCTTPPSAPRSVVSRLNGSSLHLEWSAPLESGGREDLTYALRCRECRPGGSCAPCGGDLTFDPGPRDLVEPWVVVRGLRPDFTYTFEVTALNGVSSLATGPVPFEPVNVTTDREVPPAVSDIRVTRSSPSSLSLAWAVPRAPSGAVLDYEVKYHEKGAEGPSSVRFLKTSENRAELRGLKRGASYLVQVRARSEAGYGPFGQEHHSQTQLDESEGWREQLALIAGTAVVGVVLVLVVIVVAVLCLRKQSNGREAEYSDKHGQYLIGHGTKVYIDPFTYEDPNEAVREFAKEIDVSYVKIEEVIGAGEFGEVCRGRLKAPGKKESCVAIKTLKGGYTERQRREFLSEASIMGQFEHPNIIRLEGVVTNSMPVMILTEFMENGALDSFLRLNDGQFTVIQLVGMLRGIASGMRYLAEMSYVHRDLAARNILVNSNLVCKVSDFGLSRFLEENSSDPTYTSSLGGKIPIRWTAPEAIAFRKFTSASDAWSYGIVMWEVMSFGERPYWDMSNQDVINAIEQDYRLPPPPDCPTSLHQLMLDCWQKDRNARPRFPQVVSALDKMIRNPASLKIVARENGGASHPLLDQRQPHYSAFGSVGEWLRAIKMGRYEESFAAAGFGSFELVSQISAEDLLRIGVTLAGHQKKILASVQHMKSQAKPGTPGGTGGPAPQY

[27] = target: Tyrosine-protein kinase Fyn (Homo sapiens) (UniProt P06241); assay: Inhibition of human partial length wild type Fyn (T243/L534) expressed in bacterial system at 1 uM by KINOMEscan analysis relative to control
[28] = target: Protein kinase C theta type (Homo sapiens) (UniProt Q04759); assay: Inhibition of human partial length TPKCtheta (L350/S706) expressed in bacterial system at 1 uM by KINOMEscan analysis relative to control
[29] = target: Ephrin type-A receptor 5 (Homo sapiens) (UniProt P54756); assay: Inhibition of human partial length wild type EphA5 (T627/V930) expressed in bacterial system at 1 uM by KINOMEscan analysis relative to control
Chain of Ephrin type-A receptor 5 (Homo sapiens) (P54756 whole entry): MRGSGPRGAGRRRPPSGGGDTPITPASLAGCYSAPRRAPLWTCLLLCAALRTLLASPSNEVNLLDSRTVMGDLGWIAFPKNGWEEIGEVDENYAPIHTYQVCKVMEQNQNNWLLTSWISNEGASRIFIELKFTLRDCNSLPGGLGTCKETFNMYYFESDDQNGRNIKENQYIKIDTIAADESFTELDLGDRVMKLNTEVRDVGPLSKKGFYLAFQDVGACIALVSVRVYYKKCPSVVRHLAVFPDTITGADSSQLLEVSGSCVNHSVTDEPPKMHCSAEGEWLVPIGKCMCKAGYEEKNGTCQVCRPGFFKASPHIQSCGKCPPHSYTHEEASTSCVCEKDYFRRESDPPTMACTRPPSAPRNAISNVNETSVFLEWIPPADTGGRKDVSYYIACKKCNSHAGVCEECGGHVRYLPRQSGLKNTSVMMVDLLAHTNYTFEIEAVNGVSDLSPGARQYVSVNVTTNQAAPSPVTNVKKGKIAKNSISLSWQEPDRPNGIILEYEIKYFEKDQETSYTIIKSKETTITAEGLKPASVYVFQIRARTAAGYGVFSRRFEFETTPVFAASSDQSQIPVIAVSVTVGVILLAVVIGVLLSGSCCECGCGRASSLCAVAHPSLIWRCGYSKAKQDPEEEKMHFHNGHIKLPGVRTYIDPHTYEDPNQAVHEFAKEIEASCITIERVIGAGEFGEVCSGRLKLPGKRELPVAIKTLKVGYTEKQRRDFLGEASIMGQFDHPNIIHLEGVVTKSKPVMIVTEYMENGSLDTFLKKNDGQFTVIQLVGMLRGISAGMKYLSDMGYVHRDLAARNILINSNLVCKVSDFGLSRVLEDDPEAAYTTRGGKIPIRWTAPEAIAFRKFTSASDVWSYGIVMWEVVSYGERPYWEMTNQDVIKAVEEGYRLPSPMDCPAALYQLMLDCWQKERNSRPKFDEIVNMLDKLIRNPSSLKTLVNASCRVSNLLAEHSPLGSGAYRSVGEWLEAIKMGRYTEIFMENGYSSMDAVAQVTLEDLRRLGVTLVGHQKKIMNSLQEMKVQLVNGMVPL

[30] = Half life in ICR mouse at 5 mg/kg, sc single dose measured upto 24 hrs; assay type: ADME, organism-based; details: in vivo
[31] = target: Eukaryotic elongation factor 2 kinase (Homo sapiens) (UniProt O00418); assay: Inhibition of human recombinant eEF-2K at 1 uM by radiometric assay relative to control
[32] = target: Tyrosine-protein kinase Lyn (Homo sapiens) (UniProt P07948); assay: Inhibition of human partial length wild type Lyn (C219/Q511) expressed in bacterial system at 1 uM by KINOMEscan analysis relative to control
Chain of Tyrosine-protein kinase Lyn (Homo sapiens) (P07948 2-512 limits assumed): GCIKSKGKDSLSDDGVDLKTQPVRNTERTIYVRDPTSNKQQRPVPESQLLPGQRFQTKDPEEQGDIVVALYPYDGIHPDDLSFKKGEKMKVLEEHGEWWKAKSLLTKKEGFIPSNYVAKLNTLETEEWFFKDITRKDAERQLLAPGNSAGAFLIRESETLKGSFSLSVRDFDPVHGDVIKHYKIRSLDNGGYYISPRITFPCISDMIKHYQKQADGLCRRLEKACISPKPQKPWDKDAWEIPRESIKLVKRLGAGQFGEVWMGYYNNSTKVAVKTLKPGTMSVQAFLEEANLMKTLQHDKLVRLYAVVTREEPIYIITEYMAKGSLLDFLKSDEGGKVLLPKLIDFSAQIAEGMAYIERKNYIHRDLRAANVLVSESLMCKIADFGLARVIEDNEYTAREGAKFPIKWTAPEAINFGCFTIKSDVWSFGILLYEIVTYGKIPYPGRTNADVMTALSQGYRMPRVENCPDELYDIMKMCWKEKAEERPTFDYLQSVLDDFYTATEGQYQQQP

[33] = Apparent permeability across basolateral to apical side in human Caco-2 cells measured after 120 mins by LC-MS/MS analysis; assay type: ADME, cell-based
[34] = target: Cyclin-dependent kinase 9 (Homo sapiens, UniProt P50750); assay: Inhibition of CDK9 (unknown origin)
[35] = target: T1, Cyclin-dependent kinase 7; assay: Irreversible inhibition of CDK7 (unknown origin) assessed as activity measured after 3 hrs by jump dilution method

Q: With `C=CC(=O)Nc1ccc(C(=O)Nc2n[nH]c3ccc(-c4cncc(NC[C@@H](O)c5ccccc5)c4)cc23)cc1` as the compound, how does the inhibition [1] read?
A: The inhibition was < 50%.

Q: And the inhibition (Mus musculus [2])?
A: Its inhibition is “Dose-Dependent Effect”.

Q: What about the inhibition [3] of the same compound?
A: Its inhibition is < 50%.

Q: And the inhibition [4]?
A: Its inhibition is 57%.

Q: And the inhibition (Mus musculus [5])?
A: The inhibition was “Active”.

Q: And the inhibition [6]?
A: Its inhibition is < 50%.

Q: And the efflux ratio at 2 h [7]?
A: The efflux ratio at 2 h was > 48.

Q: And the inhibition [8]?
A: Its inhibition is < 50%.

Q: And the IC50 [9]?
A: The IC50 was 1840 nM.

Q: And the half-life [10]?
A: Its half-life is 18 h.

Q: And the inhibition [11]?
A: Its inhibition is 79%.

Q: What about the inhibition (Homo sapiens) of the same compound?
A: Its inhibition is < 50%.

Q: What about the Activity (Mus musculus [12]) of the same compound?
A: The Activity was “Active”.

Q: And the IC50 (THP-1)?
A: Its IC50 is 13000 nM.

Q: What about the inhibition [13] of the same compound?
A: The inhibition was < 50%.

Q: What about the inhibition [14] of the same compound?
A: Its inhibition is < 50%.

Q: What about the AUC(0-inf) [15] of the same compound?
A: The AUC(0-inf) was 17400 ng·h/mL.

Q: And the inhibition [16]?
A: Its inhibition is 63%.

Q: What about the inhibition [17] of the same compound?
A: Its inhibition is < 50%.

Q: What about the fraction unbound at 4 h [18] of the same compound?
A: The fraction unbound at 4 h was < 0.01.

Q: What about the IC50 [19] of the same compound?
A: Its IC50 is 4 nM.

Q: What about the Cmax [20] of the same compound?
A: The Cmax was 3810 ng/mL.

Q: And the Activity [21]?
A: The Activity was “Non-Toxic”.

Q: And the inhibition [22]?
A: The inhibition was < 50%.

Q: What about the inhibition [23] of the same compound?
A: The inhibition was < 50%.

Q: What about the inhibition [24] of the same compound?
A: Its inhibition is < 50%.

Q: And the inhibition [25]?
A: The inhibition was < 50%.

Q: And the inhibition [26]?
A: The inhibition was < 50%.

Q: What about the inhibition [27] of the same compound?
A: The inhibition was < 50%.

Q: And the inhibition [28]?
A: The inhibition was 74%.

Q: And the inhibition [29]?
A: Its inhibition is < 50%.

Q: What about the half-life [30] of the same compound?
A: Its half-life is 3 h.

Q: What about the inhibition [31] of the same compound?
A: Its inhibition is < 50%.

Q: What about the inhibition [32] of the same compound?
A: Its inhibition is < 50%.

Q: What about the Papp B→A at 2 h [33] of the same compound?
A: The Papp B→A at 2 h was 6 ×10⁻⁶ cm/s.

Q: What about the IC50 [34] of the same compound?
A: The IC50 was 526 nM.

Q: What about the inhibition [35] of the same compound?
A: The inhibition was “Active”.
